ChEMBL document CHEMBL3259716, “The evolution of amidine-based brain penetrant BACE1 inhibitors” (Bioorg Med Chem Lett, 2014)

Columns and labels:
[1] = Dissociation constant, pKa of the compound; format: physicochemical
[2] = Plasma concentration in Sprague-Dawley rat at 10 mg/kg, po measured at 6 hrs by LC-MS/MS analysis; format: ADME, organism-based; design: dose 10 mg/kg, route oral
[3] = Drug uptake in Sprague-Dawley rat brain at 10 mg/kg, po measured at 6 hrs by LC-MS/MS analysis; format: ADME, organism-based; design: dose 10 mg/kg, route oral; details: read-out: Drug uptake
[4] = system: Nucleic Acid; experiment: Ratio of drug level in brain to plasma in Sprague-Dawley rat at 10 mg/kg, po measured at 6 hrs; format: ADME, organism-based; design: dose 10 mg/kg, route oral

Q: With COc1cccc(-c2cccc([C@@]3(c4ccncc4)N=C(N)N4CC(F)(F)CN=C43)c2)c1F as the molecule, how does the pKa [1] read?
A: 5.3

Q: Which pKa [1] does the source give for NC1=N[C@](c2ccc(OC(F)F)cc2)(c2cccc(OCCF)c2)C2=NCC(F)(F)CN12 here?
A: 6.5

Q: With NC1=N[C@@]2(c3cc(NC(=O)c4cnc(C(F)F)cn4)ccc3F)CO[C@H](CF)[C@H]2CS1 as the molecule, how does the concentration at 6 h [2] read?
A: 570 nM

Q: What about the concentration at 6 h [3] of the same molecule?
A: 570 nM

Q: And the BPR [4]?
A: 0.7

Q: Which results are given for NC1=N[C@@]2(c3cc(NC(=O)c4cnc(CF)cn4)ccc3F)CO[C@H](C(F)(F)F)[C@H]2CS1?
A: concentration at 6 h [2]: 229 nM; concentration at 6 h [3]: 845 nM; BPR [4]: 3.7
